Results reported in patent publication US20230390319A1, “INTERFERON GENE STIMULATOR COMPOSITION COMPRISING INDOLIZINE DERIVATIVE AS ACTIVE INGREDIENT” (AJOU UNIVERSITY INDUSTRY-ACADEMIC COOPERATION FOUNDATION, priority 2020, published 2023).
Where two headings read alike, the source gives them in different places.

Key:
IRF3, STAT1 = assay: Western blot analysis of TBK, IRF3 and STAT1 activity; assay type: cell-based; conditions: induced by cGAMP, FIG. 5
Procedure: Cells were cultured and lysed in RIPA buffer containing a protease and phosphatase inhibitor cocktail (Thermo Fisher Scientific) and benzonase nuclease (Sigma). After centrifugation, the supernatant was collected, and the amount of protein was measured using a BCA protein assay kit (Thermo Fisher Scientific). Cell lysates were analyzed by SDS-PAGE using an acrylamide gel. After SDS-PAGE, proteins were transferred to a PVDF membrane, blocked with 5% BSA, and then washed with TBST. The membrane was incubated with primary antibodies (anti-STING, anti-pSTING, anti-TBK, anti-pTBK, anti-IRF3, anti-pIRF3, anti-STAT1, anti-pSTAT1, and anti-actin) overnight at 4° C. After washing with TBST, the membrane was treated with HRP-conjugated secondary antibodies at room temperature for 1 hour. The membrane was washed with TBST and treated with ECL solution (Thermo Fisher Scientific). Chemical fluorescence images were taken with ChemiDOC (Bio-Rad).

human IFN-β and IP-10 = assay: ELISA of cytokine levels in THP-1 cell supernatants; assay type: cell-based; conditions: FIG. 3
Procedure: Cytokine levels were determined by ELISA analysis. THP-1 cells were placed in a 96-well U bottom plate and tested after 24 hours of treatment with each compound and cGAMP (1 μg/ml). After culturing, cell supernatants were collected and human IFN-β and IP-10 levels were determined by ELISA analysis.

[1] = PK profiles after IV and PO administration to BALB/c mice; assay type: in vivo; conditions: BALB/c, mouse, blood; for concentration at 0.5 h: 0.50 h; for AUC(0-t): read-out: AUClast AUC(0-t); for C0: read-out: C0; for Cmax: read-out: Cmax; for MRT inf: read-out: MRTINF_obs MRT(0-∞); for MRT last: read-out: MRTlast MRT(0-t)
Description: The pharmacokinetics and oral bioavailability of Compound 42 were investigated in mice following single intravenous (IV) injection and oral administration (PO).

[2] = iv, 5 mg/kg, IV 5 mg/kg, individual animals 101-103, read-out: concentration in blood
[3] = iv, 5 mg/kg, IV 5 mg/kg, mean, read-out: concentration in blood, Mean IV
[4] = iv, 5 mg/kg, IV 5.0 mg/kg, individual animals
[5] = iv, 5 mg/kg, IV 5.0 mg/kg, mean n=3
[6] = po, 20 mg/kg, PO 20 mg/kg, individual animals 201-203, read-out: concentration in blood
[7] = po, 20 mg/kg, PO 20 mg/kg, mean, read-out: concentration in blood, Mean PO

SMILES: CC(=O)c1ccc(-c2cc(C(=O)c3ccc(C(F)(F)F)cc3)n3ccccc23)cc1 [Compound 42]
- phosphorylation of IRF3 and STAT1 (IRF3, STAT1): increased phosphorylation of IRF3 and phosphorylation of STAT1
- cytokine secretion (IFN-β, IP-10) (human IFN-β and IP-10; co-treatment with cGAMP compared to cGAMP alone, concentration-dependent): increased cytokine secretion very effectively
- immune response, compound alone (human IFN-β and IP-10; treatment with Compound 42 alone): induced no immune response
- bioavailability ([1]; 20 mg/kg, PO administration of 20 mpk): ~18%
- concentration at 0.083 h [1, 2]: 2590 ng/mL
- concentration at 0.083 h [1, 3]: 2750 ng/mL
- concentration at 0.25 h [1, 2]: 1520 ng/mL
- concentration at 0.25 h [1, 3]: 1420 ng/mL
- concentration at 0.5 h [1, 2]: 803 ng/mL
- concentration at 0.5 h [1, 3]: 820 ng/mL
- concentration at 1 h [1, 2]: 379 ng/mL
- concentration at 1 h [1, 3]: 350 ng/mL
- concentration at 4 h [1, 2]: 97.9 ng/mL
- concentration at 4 h [1, 3]: 107 ng/mL
- concentration at 24 h [1, 2]: 29.2 ng/mL
- concentration at 24 h [1, 3]: 34.9 ng/mL
- AUC(0-inf) ([1]; iv, 5 mg/kg, IV 5.0 mg/kg, individual animals, read-out: AUCINF_obs AUC(0-∞)): 3420 ng·h/mL
- AUC(0-t) [1, 4]: 3160 ng·h/mL
- C0 [1, 4]: 3380 ng/mL
- clearance ([1]; iv, 5 mg/kg, IV 5.0 mg/kg, individual animals, read-out: Cl_obs Cl (converted)): 24.4 mL/min/kg
- Cmax [1, 4]: 2590 ng/mL
- half-life ([1]; iv, 5 mg/kg, IV 5.0 mg/kg, individual animals, read-out: HL_Lambda_z T1/2 (converted)): 6.03 h
- MRT inf [1, 4]: 6.07 h
- MRT last [1, 4]: 3.93 h
- Vd ([1]; iv, 5 mg/kg, IV 5.0 mg/kg, individual animals, read-out: Vss_obs Vss): 8.88 L/kg
- Vd ([1]; iv, 5 mg/kg, IV 5.0 mg/kg, individual animals, read-out: Vz_obs Vz): 12.7 L/kg
- AUC(0-inf) ([1]; iv, 5 mg/kg, IV 5.0 mg/kg, mean n=3, read-out: AUCINF_obs AUC(0-∞)): 3700 ng·h/mL
- AUC(0-t) [1, 5]: 3300 ng·h/mL
- C0 [1, 5]: 3830 ng/mL
- clearance ([1]; iv, 5 mg/kg, IV 5.0 mg/kg, mean n=3, read-out: Cl_obs Cl (converted)): 22.7 mL/min/kg
- Cmax [1, 5]: 2750 ng/mL
- half-life ([1]; iv, 5 mg/kg, IV 5.0 mg/kg, mean n=3, read-out: HL_Lambda_z T1/2 (converted)): 7.76 h
- MRT inf [1, 5]: 7.6 h
- MRT last [1, 5]: 4.27 h
- Vd ([1]; iv, 5 mg/kg, IV 5.0 mg/kg, mean n=3, read-out: Vss_obs Vss): 10.2 L/kg
- Vd ([1]; iv, 5 mg/kg, IV 5.0 mg/kg, mean n=3, read-out: Vz_obs Vz): 15 L/kg
- AUC(0-inf) ([1]; iv, 5 mg/kg, IV administration of 5 mg/kg (mpk), read-out: AUC∞): 3700 ng·h/mL
- Cmax ([1]; iv, 5 mg/kg, IV administration of 5 mg/kg (mpk)): 2750 ng/mL
- half-life ([1]; iv, 5 mg/kg, IV administration of 5 mg/kg (mpk), read-out: half-life (converted)): ~7.76 h
- clearance ([1]; iv, 5 mg/kg, IV administration, read-out: mean blood clearance): 22.7 mL/min/kg
- Vd ([1]; iv, 5 mg/kg, IV administration, read-out: mean volume of distribution at steady state (Vss)): 10.2 L/kg
- concentration at 0.25 h [1, 6]: 75.3 ng/mL
- concentration at 0.25 h [1, 7]: 89.9 ng/mL
- concentration at 0.5 h [1, 6]: 139 ng/mL
- concentration at 0.5 h [1, 7]: 156 ng/mL
- concentration at 1 h [1, 6]: 211 ng/mL
- concentration at 1 h [1, 7]: 225 ng/mL
- concentration at 3 h [1, 6]: 149 ng/mL
- concentration at 3 h [1, 7]: 161 ng/mL
- concentration at 6 h ([1]; po, 20 mg/kg, PO 20 mg/kg, 6.00 h, individual animals 201-203, read-out: concentration in blood): 98.7 ng/mL
